The species entered for one data set is Gallus gallus. Briefly: Binding affinity to monoamine transporter in dissociated chick brain stem cells assessed as receptor-mediated compound uptake. The format is cell-based.
Data set [1] can be described thus: Solubility of the compound in methanol. The class given is physicochemical.
Data set [2] can be described thus: Solubility of the compound in DMSO. The format is physicochemical.
Data set [3] is described as follows: Octanol-phosphate buffered saline partition coefficient, log K of the compound. To be noted: for logD: octanol/phosphate buffered saline, read-out: log K. The format is physicochemical.
In the next data set the test system is HEK293. Briefly: Binding affinity to human monoamine transporter expressed in HEK293 cells assessed as receptor-mediated compound uptake. The class given is cell-based.
Another data set relates to MLO-Y4. Briefly: Binding affinity to monoamine transporter in mouse MLO-Y4 cells assessed as receptor-mediated compound uptake at 20 uM by confocal microscopic analysis in presence of serotonin reuptake inhibitor clomipramine. The class given is cell-based.
The subject of data set [4] is Rattus norvegicus. Briefly: Toxicity in Sprague-Dawley rat assessed as change in mean breathing rate at 0.25 mM administered for 30 seconds through polyethylene cannula in carotid artery. The class given is organism-based. To be noted: in vivo, other, 250 µM.
The test system of data set [5] is Rattus norvegicus. Briefly: Toxicity in Sprague-Dawley rat assessed as change in blood pressure at 0.25 mM administered for 30 seconds through polyethylene cannula in carotid artery. To be noted: in vivo, other, 250 µM. The format is organism-based.
Data set [6] concerns Rattus norvegicus. Briefly: Toxicity in Sprague-Dawley rat assessed as change in heart rate at 0.25 mM administered for 30 seconds through polyethylene cannula in carotid artery. The format is organism-based. Conditions: in vivo, other, 250 µM.
In data set [7] the test system is Rattus norvegicus. Kind of data set: Toxicity in Sprague-Dawley rat assessed as change in mean breathing rate at 0.23 to 1 mM administered for 1 to 3 mins through polyethylene cannula in carotid artery measured after 600 seconds. The format is organism-based. To be noted: in vivo, other, 10 min, 1000 µM.
Data set [8] concerns Rattus norvegicus. Kind of data set: Toxicity in Sprague-Dawley rat assessed as change in mean breathing rate at 0.23 to 1 mM administered for 1 to 3 mins through polyethylene cannula in carotid artery measured after 200 to 400 seconds. To be noted: in vivo, other, 1000 µM. The class given is organism-based.
Data set [9] in a line: Drug uptake in Sprague-Dawley rat blood platelet cells administered through intra-arterial injection by fluorescence microscopy analysis. The class given is ADME, cell-based. To be noted: in vivo, other.
The test system of a further data set is Brain. Briefly: Drug uptake in Sprague-Dawley rat brain administered through intra-arterial injection by fluorescence microscopy analysis. The class given is ADME, tissue-based. To be noted: in vivo, other.
Data set [10] relates to Rattus norvegicus. Briefly: Toxicity in Sprague-Dawley rat assessed as prolonged reduction in NRM neurons activity at 0.23 to 1 mM administered for 1 to 3 mins through polyethylene cannula in carotid artery measured 30 mins post dose. To be noted: in vivo, other, 0.5 h, 1000 µM. The class given is organism-based.
The test system of data set [11] is Rattus norvegicus. Kind of data set: Toxicity in Sprague-Dawley rat assessed as prolonged reduction in NRM neurons activity at 0.23 to 1 mM administered for 1 to 3 mins through polyethylene cannula in carotid artery measured immediately post dose. The class given is organism-based. Conditions: in vivo, other, 1000 µM.

The source made the active and inactive calls. The rule behind the calls is not given here.

For `NCCc1c2ccccc2cc2ccccc12`, the outcome in the data set listed under Gallus gallus and in the data set with HEK293 was inactive. In addition, the solubility entry in data set [1] and in data set [2] was “soluble” throughout. In addition, the logD in data set [3] stood at 1.1.

As for `NCCN1C(=O)c2cccc3c(N)ccc(c23)C1=O`, the outcome in the data set filed under Gallus gallus and in the data set with HEK293 was Active. In addition, the solubility entry in [1] and in data set [2] was “soluble” each time. In data set [3], the logD was -0.58. The result in the data set on MLO-Y4 was inactive. The Activity result in the data set on Rattus norvegicus [4], in the data set with Rattus norvegicus [5], in the data set with Rattus norvegicus [6], in the data set with Rattus norvegicus [7], in the data set on Rattus norvegicus [8] and in the data set with Rattus norvegicus [10] was “Non-toxic” in each case. The Activity entry in the data set on Rattus norvegicus [11] was “Toxic”. Also, the Drug uptake result in data set [9] was “Active”; with Brain, “Not Active”.

In the case of `CN[C@H]1CC[C@@H](c2ccc(Cl)c(Cl)c2)c2ccccc21` [SERTRALINE], the “log K” value in data set [3] (octanol/water) was 1.37.

On to `NCCc1ccc(O)c(O)c1` [DOPAMINE], for which the logD in data set [3] is -2.38.

Take `NCCn1cc2c(nc1=O)Nc1ccccc1S2`: the result in the data set filed under Gallus gallus and in the data set with HEK293 was Active. For the same compound, the solubility entry in [1] and in data set [2] was “soluble” in each case. Also, the logD in data set [3] came out at 0.65.

For the compound `NCCOc1cccc2c(O)cccc12`, the outcome in the data set listed under Gallus gallus and in the data set on HEK293 was inactive. The solubility result in data set [1] and in [2] was “soluble” each time. Further, the logD in data set [3] turned out to be 0.1.

Turning to `NCCc1c[nH]c2ccc(O)cc12` [SEROTONIN], the logD in data set [3] was -1.57.

For the compound `COc1cccc2c(OCCN)cccc12`, the outcome in the data set filed under Gallus gallus and in the data set with HEK293 was inactive. Moreover, the solubility result in data set [1] and in data set [2] was “soluble” each time. The logD in data set [3] is 0.28.

For `NCCc1ccc2ccc3cccc4ccc1c2c34`, the result in the data set filed under Gallus gallus and with HEK293 was inactive. The solubility result in [1] and in data set [2] was “soluble” in each case. For the same compound, the logD in [3] is 1.42.

(Values after ChEMBL document CHEMBL2146417, “Fluorescent reporters of monoamine transporter distribution and function” (Bioorg Med Chem Lett, 2011).)
